Data: patent publication US6093744A, “N-acyl sulfamic acid esters useful as hypocholesterolemic agents” (Warner-Lambert Company, priority 1998, dated 2000)
Where a name gives a salt, the structure may show the parent alone. Blank lines part the entries; values can stand above or below the compound they belong to.

Key:
[1] = target: T1, acyl-CoA: cholesterol acyltransferase (ACAT) (Rattus norvegicus, UniProt Q7TQM4); assay: In vitro inhibition of acylation of cholesterol by oleic acid (LAI), rat liver microsomes; type: biochemical; conditions: radiolabeled oleic acid
T1 construct: tissue preparation containing rat liver microsomes; from tissue; host or cells: rat liver microsomes
T1 sequence (Q7TQM4 1-524): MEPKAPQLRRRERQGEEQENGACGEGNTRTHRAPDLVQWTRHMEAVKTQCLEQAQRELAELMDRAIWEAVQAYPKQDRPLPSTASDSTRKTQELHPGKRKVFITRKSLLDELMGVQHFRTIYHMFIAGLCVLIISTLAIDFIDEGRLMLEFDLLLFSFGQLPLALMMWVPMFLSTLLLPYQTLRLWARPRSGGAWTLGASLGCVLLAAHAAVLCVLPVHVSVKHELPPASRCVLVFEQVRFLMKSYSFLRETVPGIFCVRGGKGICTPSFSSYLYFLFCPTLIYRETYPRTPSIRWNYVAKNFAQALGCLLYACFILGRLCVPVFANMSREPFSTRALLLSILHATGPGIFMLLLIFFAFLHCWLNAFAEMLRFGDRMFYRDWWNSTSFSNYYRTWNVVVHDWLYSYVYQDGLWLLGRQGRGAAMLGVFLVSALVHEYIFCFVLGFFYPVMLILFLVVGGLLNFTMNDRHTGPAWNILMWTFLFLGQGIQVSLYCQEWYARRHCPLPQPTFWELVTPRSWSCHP
Description: The ability of representative compounds of the present invention to inhibit ACAT was measured using an in vitro test more fully described in Field F J, Salone R G, Biochemica et Biophysica 1982; 712:557-570. The test assesses the ability of a test compound to inhibit the acylation of cholesterol by oleic acid by measuring the amount of radiolabeled cholesterol oleate formed from radiolabeled oleic acid in a tissue preparation containing rat liver microsomes.

Plasma TC = assay: in vivo screen designated APCC (high fat, high cholesterol diet, plasma cholesterol); design: species or system male Sprague-Dawley rats; conditions: rats, PCC diet with 0.5% cholic acid overnight, vehicle CMC/Tween
From the text: In one in vivo screen designated APCC, male Sprague-Dawley rats (200 to 225 g) were randomly divided into treatment groups and dosed at 4 PM with either vehicle (CMC/Tween) or suspensions of compounds in vehicle. The normal chow diet was then replaced with a high fat, high cholesterol diet (designated PCC) containing 0.5% cholic acid. The rats consumed this diet ad libitum during the night and were sacrificed at 8 AM to obtain blood samples for cholesterol analysis using standard procedures. Statistical differences between mean cholesterol values for the same vehicle were determined using analysis of variance followed by Fisher's least significant test.

[2] = Rattus norvegicus, dose 10 mg/kg

Structure (SMILES): CC(C)c1cc(C(C)C)c(CC(=O)NS(=O)(=O)Oc2c(C(C)C)cc(CNCc3ccccc3)cc2C(C)C)c(C(C)C)c1 [Example 22, [(2,4,6-Triisopropyl-phenyl)-acetyl]-sulfamic acid 4-(benzylamino-methyl)-2,6-diisopropyl-phenyl ester mono hydrochloride]
- IC50 [1]: 22.8 µM
- change in vivo at 10 mg/kg (Plasma TC; [2]): -18%

Structure (SMILES): CSCCC(N)C(=O)Nc1cc(C(C)C)c(OS(=O)(=O)NC(=O)Cc2c(C(C)C)cc(C(C)C)cc2C(C)C)c(C(C)C)c1 (stereo not drawn) [Example 6, [(2,4,6-Triisopropyl-phenyl)-acetyl]-sulfamic acid 4-(2-amino-4-methylsulfanyl-butyrylamino)-2,6-diisopropyl-phenyl ester trifluoroacetate]
- IC50 [1]: 750 µM
- change in vivo at 10 mg/kg (Plasma TC; [2]): -72%

Structure (SMILES): CC(C)c1cc(C(C)C)c(CC(=O)NS(=O)(=O)Oc2c(C(C)C)cc(C#N)cc2C(C)C)c(C(C)C)c1 [Example 18, [(2,4,6-Triisopropyl-phenyl)-acetyl]-sulfamic acid 4-cyano-2,6-diisopropyl-phenyl ester]
- IC50 [1]: > 50 µM
- change in vivo at 10 mg/kg (Plasma TC; [2]): -38%

Structure (SMILES): CC(C)c1cc(C(C)C)c(CC(=O)NS(=O)(=O)Oc2c(C(C)C)cc(NC(=O)[C@H](CCCCNC(=O)OC(C)(C)C)NC(=O)OC(C)(C)C)cc2C(C)C)c(C(C)C)c1 [Example 1, (S)-[5-tert-Butoxycarbonylamino-5-(3,5-diisopropyl-4-{[(2,4,6-triisopropyl-phenyl)-acetyl]-sulfamoyloxy}-phenylcarbanoyl)-pentyl]-carbamic acid tert-butyl ester]
- IC50 [1]: 23 µM
- change in vivo at 1 mg/kg (Plasma TC; Rattus norvegicus, dose 1 mg/kg): 7%

Structure (SMILES): CC(=O)Nc1cc(C(C)C)c(OS(=O)(=O)NC(=O)Cc2c(C(C)C)cc(C(C)C)cc2C(C)C)c(C(C)C)c1 [Example 26]
- IC50 [1]: 30 µM
- change in vivo at 10 mg/kg (Plasma TC; [2]): -44%

Structure (SMILES): CC(C)c1cc(C(C)C)c(CC(=O)NS(=O)(=O)Oc2c(C(C)C)cc(SC#N)cc2C(C)C)c(C(C)C)c1 [Example 17, [(2,4,6-Triisopropyl-phenyl)-acetyl]-sulfamic acid 2,6-diisopropyl-4-thiocyanato-phenyl ester]
- IC50 [1]: 29 µM
- change in vivo at 10 mg/kg (Plasma TC; [2]): -46%

Structure (SMILES): CC(C)c1cc(C(C)C)c(CC(=O)NS(=O)(=O)Oc2c(C(C)C)cc(NC(=O)CCCCN)cc2C(C)C)c(C(C)C)c1 [Example 10, [(2,4,6-Triisopropyl-phenyl)-acetyl]-sulfamic acid 4-(5-amino-pentanoylamino)-2,6-diisopropyl-phenyl ester trifluoroacetate(1:1) (salt)]
- change in vivo at 10 mg/kg (Plasma TC; [2]): -15%

Structure (SMILES): CC(C)c1cc(C(C)C)c(CC(=O)NS(=O)(=O)Oc2c(C(C)C)cc(CCCCCC(=O)O)cc2C(C)C)c(C(C)C)c1 [Example 37]
- IC50 [1]: > 50 µM
- change in vivo at 10 mg/kg (Plasma TC; [2]): -47%

Structure (SMILES): CC(C)c1cc(C(C)C)c(CC(=O)NS(=O)(=O)Oc2c(C(C)C)cc(NS(C)(=O)=O)cc2C(C)C)c(C(C)C)c1 [Example 34, [(2,4,6-Triisopropyl-phenyl)-acetyl]-sulfamic acid 2,6-diisopropyl-4methanesulfonylamino-phenyl ester]
- IC50 [1]: 45 µM
- change in vivo at 10 mg/kg (Plasma TC; [2]): -13%

Structure (SMILES): CC(C)c1cc(C(C)C)c(CC(=O)NS(=O)(=O)Oc2c(C(C)C)cc(OCCCN(C)C)cc2C(C)C)c(C(C)C)c1.Cl [Example 15, [(2,4,6-Triisopropyl-phenyl)-acetyl]-sulfamic acid 4-(3-dimethylamino-propoxy)-2,6-diisopropyl-phenyl ester hydrochloride salt]
- APCC % Change in Plasma TC (Plasma TC; dose 10 mg/kg): -26%

Now from value to compound, other results behind:

- IC50 [1]: 19 µM
Structure (SMILES): CCOC(=O)CCCCCc1cc(C(C)C)c(OS(=O)(=O)NC(=O)Cc2c(C(C)C)cc(C(C)C)cc2C(C)C)c(C(C)C)c1 [Example 36, 6-(3,5-Diisopropyl-4-{[(2,4,6-triisopropyl-phenyl)-acetyl]sulfamoyloxy}-phenyl)-hexanoic acid ethyl ester]
- change in vivo at 10 mg/kg (Plasma TC; [2]): -17%

- IC50 [1]: 18 µM
Structure (SMILES): CC(C)c1cc(C(C)C)c(CC(=O)NS(=O)(=O)Oc2c(C(C)C)cc(NC(=O)CNC(=O)OC(C)(C)C)cc2C(C)C)c(C(C)C)c1 [Example 3]
- change in vivo at 30 mg/kg (Plasma TC; Rattus norvegicus): -40%

- IC50 [1]: > 50 µM
Structure (SMILES): CC(C)c1cc(C(C)C)c(CC(=O)NS(=O)(=O)Oc2c(C(C)C)cc(CNC(=O)CN)cc2C(C)C)c(C(C)C)c1 [Example 19, [(2,4,6-Triisopropyl-phenyl)-acetyl]-sulfamic acid 4-[(2-amino-acetylamino)-methyl]-2,6-diisopropyl-phenyl ester]
- change in vivo at 10 mg/kg (Plasma TC; [2]): -16%

- IC50 [1]: 49 µM
Structure (SMILES): CCOC(=O)CCNC(=O)Nc1cc(C(C)C)c(OS(=O)(=O)NC(=O)Cc2c(C(C)C)cc(C(C)C)cc2C(C)C)c(C(C)C)c1 [Example 7]
- change in vivo at 30 mg/kg (Plasma TC; Rattus norvegicus): -30%

- IC50 [1]: 44.6 µM
Structure (SMILES): CC(C)c1cc(C(C)C)c(CC(=O)NS(=O)(=O)Oc2c(C(C)C)cc(C=CC#N)cc2C(C)C)c(C(C)C)c1 [Example 21, [(2,4,6-Triisopropyl-phenyl)-acetyl]-sulfamic acid 4-(2-cyano-vinyl)-2,6-diisopropyl-phenyl ester]
- change in vivo at 10 mg/kg (Plasma TC; [2]): -35%

- IC50 [1]: 43.8 µM
Structure (SMILES): CC(C)c1cc(C(C)C)c(CC(=O)NS(=O)(=O)Oc2c(C(C)C)cc(N(CCO)CCO)cc2C(C)C)c(C(C)C)c1 [Example 28, [(2,4,6-Triisopropyl-phenyl)-acetyl]-sulfamic acid 4-[bis-(2-hydroxy-ethyl)-amino]-2,6-diisopropyl-phenyl ester]
- change in vivo at 10 mg/kg (Plasma TC; [2]): -48%

- IC50 [1]: > 50 µM
Structure (SMILES): CC(C)c1cc(C(C)C)c(CC(=O)NS(=O)(=O)Oc2c(C(C)C)cc(NC(=O)[C@@H](N)CCCCN)cc2C(C)C)c(C(C)C)c1 [Example 2, (S)-[(2,4,6-Triisopropyl-phenyl)-acetyl]-sulfamic acid 4-(2,6-diamino-hexanoylamino)-2,6-diisopropyl-phenyl ester dihydrochloride]
- change in vivo at 10 mg/kg (Plasma TC; [2]): -60%

- IC50 [1]: 43 µM
Structure (SMILES): CC(C)c1cc(C(C)C)c(CC(=O)NS(=O)(=O)Oc2c(C(C)C)cc(NCCO)cc2C(C)C)c(C(C)C)c1 [Example 27, [(2,4,6-Triisopropyl-phenyl)-acetyl]-sulfamic acid 4-(2-hydroxy-ethylamino)-2,6-diisopropyl-phenyl ester]

- IC50 [1]: 37.4 µM
Structure (SMILES): CC(C)c1cc(C(C)C)c(CC(=O)NS(=O)(=O)Oc2c(C(C)C)cc(NC(=S)Nc3ccccc3)cc2C(C)C)c(C(C)C)c1 [Example 31]
- change in vivo at 10 mg/kg (Plasma TC; [2]): -21%

- IC50 [1]: 48 µM
Structure (SMILES): CC(C)c1cc(C(C)C)c(CC(=O)NS(=O)(=O)Oc2c(C(C)C)cc(NC(=O)CN)cc2C(C)C)c(C(C)C)c1 [Example 4, [(2,4,6-Triisopropyl-phenyl)-acetyl]-sulfamic acid 4-(2-amino-acetylamino)-2,6-diisopropyl-phenyl ester]
- change in vivo at 10 mg/kg (Plasma TC; [2]): -65%

- IC50 [1]: 43.2 µM
Structure (SMILES): CC(C)c1cc(C(C)C)c(CC(=O)NS(=O)(=O)Oc2c(C(C)C)cc(C=O)cc2C(C)C)c(C(C)C)c1 [Example 20, [(2,4,6-Triisopropyl-phenyl)-acetyl]-sulfamic acid 4-formyl-2,6-diisopropyl-phenyl ester]
- change in vivo at 10 mg/kg (Plasma TC; [2]): -44%

- IC50 [1]: 24 µM
Structure (SMILES): CC(C)c1cc(C(C)C)c(CC(=O)NS(=O)(=O)Oc2c(C(C)C)cc(NC(=O)C(N)Cc3c[nH]c4ccccc34)cc2C(C)C)c(C(C)C)c1 (stereo not drawn) [Example 9]
- change in vivo at 10 mg/kg (Plasma TC; [2]): -25%

- IC50 [1]: 31.1 µM
Structure (SMILES): CC(C)c1cc(C(C)C)c(CC(=O)NS(=O)(=O)Oc2c(C(C)C)cc(NS(=O)(=O)c3cccs3)cc2C(C)C)c(C(C)C)c1 [Example 32, [(2,4,6-Triisopropyl-phenyl)-acetyl]-sulfamic acid 2,6-diisopropyl-4-(thiophene-2-sulfonyamino)-phenyl ester]
- change in vivo at 10 mg/kg (Plasma TC; [2]): -60%

- IC50 [1]: > 50 µM
Structure (SMILES): CC(C)c1cc(C(C)C)c(CC(=O)NS(=O)(=O)Oc2c(C(C)C)cc(NC(=O)NCCC(=O)O)cc2C(C)C)c(C(C)C)c1 [Example 8]
- change in vivo at 10 mg/kg (Plasma TC; [2]): -15%

- IC50 [1]: 10.6 µM
Structure (SMILES): CC(C)c1cc(C(C)C)c(CC(=O)NS(=O)(=O)Oc2c(C(C)C)cc(NS(=O)(=O)c3cccc4c(N(C)C)cccc34)cc2C(C)C)c(C(C)C)c1 [Example 33, [(2,4,6-Triisopropyl-phenyl)-acetyl]-sulfamic acid 4-(5 dimethylamino-naphthalene-1-sulfonylamino)-2,6-diisopropyl-phenyl ester]
- change in vivo at 10 mg/kg (Plasma TC; [2]): -61%

- IC50 [1]: 50 µM
Structure (SMILES): CC(C)c1cc(C(C)C)c(CC(=O)NS(=O)(=O)Oc2c(C(C)C)cc(S(N)(=O)=O)cc2C(C)C)c(C(C)C)c1 [Example 35, [(2,4,6-Triisopropyl-phenyl)-acetyl]-sulfamic acid 2,6-diisopropyl-4-sulfamoyl-phenyl ester]
